{"source": "patent US20140303216A1", "about": "“COMPOSITIONS AND METHODS FOR INDUCING DISRUPTION OF BLOOD VASCULATURE AND FOR REDUCING ANGIOGENESIS” (BOARD OF REGENTS, THE UNIVERSITY OF TEXAS SYSTEM, priority 2011, published 2014)", "key": {"HUVEC cells": {"tested_on": "HUVEC cells", "test": "HUVEC apoptosis and proliferation (Caspase-3, Phospho-histone H3 immunostaining)", "type": "cell-based, human", "conditions": "cultured on 0.1% gelatin", "text": "FIG. 18. TBZ treatment (A) increases apoptosis and (B) decreases proliferation of HUVEC cells cultured on 0.1% gelatin, but only by approximately 2-fold. Both changes are significant under a t test (p=0.015, p=0.01, respectively). Error bars represent mean±1 s.d. across 14-16 fields of view of 200× magnification confocal microscopy cell images across 2-3 independent experiments. Scale bar, 100 μm.\nControl cells received 1% DMSO."}, "[1]": {"tested_on": "developing Xenopus embryos", "test": "Xenopus embryo angiogenesis, in situ hybridization for erg/apinr and kdr:GFP imaging", "type": "in vivo, Xenopus laevis", "text": "(§1) Female adult Xenopus were ovulated by injections of human chorionic gonadotropin, and eggs were fertilized in vitro and dejellied in 3% cysteine (pH 7.9) and subsequently reared in ⅓×Marc's modified Ringer's (MMR) solution. For microinjections, embryos were placed in a solution of 2% Ficoll in ⅓×MMR solution, injected using forceps and an Oxford universal manipulator, reared in 2% Ficoll in ⅓×MMR to stage 9, then washed and reared in ⅓×MMR solution alone. For bilateral rab11b knock-down experiments, the posterior cardinal vein and intersomitic veins were targeted by injecting Morpholino antisense oligonucleotides (MOs) into the two ventral cells equatorially at the four-cell stage. For unilateral knockdown, only one ventral cell was injected. MOs were injected at 40 ng per blastomere. For the experiments to see the drug effects, embryos were placed in a solution of each chemical dissolved in 1% DMSO diluted in ⅓×MMR during indicated stages. For bead micro-surgery implantation, Affi-Gel Blue Gel beads (Bio-Rad) were soaked with 0.7 mg/ml recombinant mouse VEGF 164 aa (R&D systems) or BSA as a control. Whole-mount in situ hybridization for erg and apinr was performed as described^29.\nTo analyze action of TBZ precisely on inhibition of angiogenesis and disruption of vasculature, we tested TBZ on two different developmental stages. Xenopus late tailbud embryos at stage 31 were selected for testing the inhibitory effect of TBZ on angiogenesis (FIG. 3A-D). This embryonic stage coincides with the onset of intersomitic vein (ISV) angiogenesis, the process of forming smaller blood vessels by sprouting from pre-existing blood vessels. To observe disruption of existing vasculature, we selected stage 35/36 embryos in which the posterior cardinal vein (PCV) and ISV are already developed (FIG. 15)."}, "HUVECs [2]": {"tested_on": "HUVECs", "test": "HUVEC wound scratch cell migration assay", "type": "cell-based, human", "conditions": "250 μM TBZ, 15 h", "procedure": "HUVECs (1.2×10^5 cells) were seeded into 24-well plate for 24 h, and the monolayers were wounded identically. Then, cells were washed with PBS and treated with EBM-2 containing 1% DMSO or 250 μM TBZ dissolved in 1% DMSO with combination of Y27632 or GGPP (Sigma). In the case of Y27632 treatment, cells were preincubated for 2 h before wounding. Cells were photographed at time zero and after 15 h, and the ratios of cell free area [(0 h-15 h)/0 h] were calculated."}, "[3]": {"tested_on": "HT1080 human fibrosarcoma xenograft", "test": "HT1080 human fibrosarcoma xenograft model", "type": "in vivo, athymic Cre nu/nu mice", "conditions": "TBZ 50 mg/kg", "procedure": "Specific pathogen-free athymic Cre Nu/nu mice were purchased from Charles River Laboratories. The HT-1080 human fibrosarcoma cell line was obtained from the American Type Culture Collection (ATCC). HT-1080 cells were cultured in DMEM (Gibco) containing 10% fetal bovine serum (FBS, Gibco) in tissue culture flasks at 37° C. in a humidified atmosphere of 5% CO2. In order to generate a mouse xenograft model, a suspension of the HT-1080 cells (3×10^6 in 50p1 PBS) mixed with an equal volume of Matrigel (BD Bioscience) was subcutaneously implanted into the flank region of 7-8 week old female mice. Upon establishment of tumors (approx. 40 mm^3), mice were given intraperitoneal injections of 1 mg thiabendazole (Sigma-Aldrich), suspended in 20 μl 100% DMSO. As a control, an equal volume of DMSO was injected in the same manner. Tumor growth was monitored by measuring the length and width of each tumor using digital calipers, and the tumor volume in mm^3 calculated by the formula: Volume=(width)^2×length/2. Upon a tumor reaching the maximum size permitted by the Institutional Animal Care and Use Committee (1.5 cm in diameter), the mouse was sacrificed, and the tumor excised. […] Control cells received 1% DMSO."}, "mitochondria": {"tested_on": "mitochondria", "test": "Mitochondrial mass and membrane potential (MitoTracker Green/Red)", "type": "cell-based"}, "Xenopus embryos": {"tested_on": "Xenopus embryos", "test": "Xenopus embryo morphology and developmental defects", "type": "in vivo", "text": "as §1, with “1⁄3×Marc's” for “⅓×Marc's”, “1⁄3×MMR” for “⅓×MMR”, “[…] performed as described^29. Immunostaining for Xenopus” for “erg and apinr”, “previously described (Lee et al., 2008). Embryos at stage 35-36 were fixed in 1×MEMFA. 12/101 (1:500; DSHB), and primary antibodies were detected with Alexa Fluor-488 or 555 goat anti-mouse Immunoglobulin (IgG).” for “described^29.”"}, "HUVECs [4]": {"tested_on": "HUVECs", "test": "HUVEC cytoskeleton imaging (actin stress fibers, β-tubulin immunohistochemistry)", "description": "Alexa Fluor 488 phalloidin (Invitrogen) and/or 4′,6-Diamidino-2-phenylindole (Sigma) were added as needed."}, "HT1080 cells": {"tested_on": "HT1080 cells", "test": "HT1080 cell proliferation in vitro", "type": "cell-based, human", "conditions": "cultured in vitro", "text": "FIG. 21. […] Error bars represent mean±1 s.d. across 14-15 fields of view of 200× magnification confocal microscopy cell images across 2 independent experiments. Scale bar, 100 μm."}, "[5]": {"conditions": "short-term or long-term studies at doses up to 15 times the usual human dose; cited from earlier work"}}, "data": [{"smiles": "c1ccc2[nH]c(-c3cscn3)nc2c1", "note": "[TBZ, 4-(1H-1,3-benzodiazol-2-yl)-1,3-thiazole]", "values": [{"measurement": "decrease of proliferation of HUVEC cells", "setting": "HUVEC cells; p=0.01", "value": "approximately 2 fold"}, {"measurement": "increase of apoptosis of HUVEC cells", "setting": "HUVEC cells; p=0.015", "value": "approximately 2 fold"}, {"measurement": "concentration at which angiogenesis inhibition was observed", "setting": "[1]; Xenopus embryos in vivo", "value": "100 to 250", "unit": "µM"}, {"measurement": "angiogenesis, expression of vascular-specific genes apinr and erg", "setting": "[1]; Xenopus embryos, 250 μM TBZ in 1% DMSO, treated at stage 31, imaged at stages 35-36", "value": "severely impaired angiogenesis"}, {"measurement": "disruption of pre-existing vasculature", "setting": "[1]; treatment at later stages (stage 36), in situ hybridization versus apinr at stage 39", "value": "overt breakdown of established vasculature"}, {"measurement": "endothelial cell migration in scratch wound assay", "setting": "HUVECs [2]", "value": "significantly slowed"}, {"measurement": "tumor microvessel density in xenografts (CD31 staining)", "setting": "[3]", "value": "significantly impair"}, {"measurement": "xenograft growth, time course of tumor size and final tumor mass", "setting": "[3]; intraperitoneal, 27 d", "value": "significantly slowed"}, {"measurement": "mitochondrial mass (MitoTracker Green signal)", "setting": "mitochondria", "value": "no differences"}, {"measurement": "mitochondrial membrane potential (ratio of MitoTracker Red signal to Mitotracker Green signal)", "setting": "mitochondria", "value": "no differences"}, {"measurement": "somitic muscle, defined with the 12/101 antibody", "setting": "Xenopus embryos; 250 μM TBZ, 1% DMSO, treated at stage 31, imaged at stages 35-36, compared to 1% DMSO control", "value": "normal"}, {"measurement": "overall morphology and patterning of treated Xenopus embryos", "setting": "Xenopus embryos; at the stages when the vasculature was severely disrupted", "value": "grossly normal"}, {"measurement": "actin stress fibers", "setting": "HUVECs [4]; 250 μM TBZ versus 1% DMSO control", "value": "disorganization of actin stress fibers"}, {"measurement": "gross organization of the MT cytoskeleton", "setting": "HUVECs [4]; HUVEC cells in culture, 250 μM TBZ", "value": "only a very slight effect"}, {"measurement": "rate of proliferation in HT1080 cells", "setting": "HT1080 cells", "value": "did not alter"}, {"measurement": "carcinogenic effects", "setting": "[5]", "value": "no carcinogenic effects"}]}]}
